Laboratory results published in publication PMC12207590, “Substrate Specificity of the Organic Cation Transporters MATE1 and MATE2K and Functional Overlap with OCT1 and OCT2” (Journal of Medicinal Chemistry, 2025).
Where two headings read alike, the source gives them in different places.

Columns and labels:
[1] = target: T1, MATE1 (Homo sapiens, UniProt Q96FL8); test: Uptake ratio in MATE1-overexpressing HEK293 cells vs empty vector (2.5 μM, 1 min, HPLC-MS/MS); type: cell-based
T1 sequence (Q96FL8 1-570): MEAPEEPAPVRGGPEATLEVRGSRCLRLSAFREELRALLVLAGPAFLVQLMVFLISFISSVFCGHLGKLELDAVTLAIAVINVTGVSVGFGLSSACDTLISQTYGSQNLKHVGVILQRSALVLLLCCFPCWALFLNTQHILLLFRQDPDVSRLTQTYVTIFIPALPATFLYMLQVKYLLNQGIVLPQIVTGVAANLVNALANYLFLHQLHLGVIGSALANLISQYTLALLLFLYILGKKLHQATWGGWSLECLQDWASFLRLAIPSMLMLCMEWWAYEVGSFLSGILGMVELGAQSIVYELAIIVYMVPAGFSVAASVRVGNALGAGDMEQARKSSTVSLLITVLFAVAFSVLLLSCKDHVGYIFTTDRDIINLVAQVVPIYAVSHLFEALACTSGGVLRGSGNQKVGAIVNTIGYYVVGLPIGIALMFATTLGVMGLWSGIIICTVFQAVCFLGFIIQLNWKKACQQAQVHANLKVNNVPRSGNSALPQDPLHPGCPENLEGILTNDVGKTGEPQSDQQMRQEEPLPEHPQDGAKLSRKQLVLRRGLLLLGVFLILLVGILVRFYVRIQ

[2] = target: MATE2K (Homo sapiens, UniProt Q86VL8); test: Uptake ratio in MATE2K-overexpressing HEK293 cells vs empty vector (2.5 μM, 1 min, HPLC-MS/MS); type: cell-based
Sequence of MATE2K (Q86VL8 1-566 isoform Q86VL8-3): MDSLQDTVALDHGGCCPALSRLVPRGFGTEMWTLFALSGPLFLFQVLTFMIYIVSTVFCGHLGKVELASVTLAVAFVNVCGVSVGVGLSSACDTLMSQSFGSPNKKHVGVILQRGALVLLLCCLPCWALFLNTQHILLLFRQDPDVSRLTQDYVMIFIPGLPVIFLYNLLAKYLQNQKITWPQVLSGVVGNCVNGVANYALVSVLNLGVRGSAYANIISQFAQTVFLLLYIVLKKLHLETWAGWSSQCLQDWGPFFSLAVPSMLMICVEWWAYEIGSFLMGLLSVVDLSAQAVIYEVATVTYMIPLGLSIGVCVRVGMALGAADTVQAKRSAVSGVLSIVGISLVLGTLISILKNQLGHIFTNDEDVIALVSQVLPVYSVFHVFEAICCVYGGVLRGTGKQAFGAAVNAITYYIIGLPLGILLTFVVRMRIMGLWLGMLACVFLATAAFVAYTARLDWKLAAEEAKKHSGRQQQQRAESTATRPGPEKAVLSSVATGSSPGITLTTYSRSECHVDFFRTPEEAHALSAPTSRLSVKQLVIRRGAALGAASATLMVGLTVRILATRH

[3] = fold uptake over empty vector, 2.5 μM, 1 min
[4] = mean ratio of uptake in MATE1-overexpressing HEK293 cells vs empty vector, 2.5 μM, 1 min
[5] = mean ratio of uptake in MATE2K-overexpressing HEK293 cells vs empty vector, 2.5 μM, 1 min
[6] = uptake ratio MATE1-overexpressing vs empty-vector HEK293 cells, 2.5 μM, 1 min, mean
[7] = uptake ratio MATE2K-overexpressing vs empty-vector HEK293 cells, 2.5 μM, 1 min, mean

| MATE1 ratio [1, 3] | MATE2K ratio [2, 3] | SMILES | other results |
| --- | --- | --- | --- |
| 7.43 | 6.67 | CC(C)(C)NCC(O)COc1cccc2c1CCC(=O)N2 (stereo not shown) [Carteolol] | MATE1 (uptake ratio) [1, 4]: 7.43; MATE2 (uptake ratio) [2, 5]: 6.67 |
| 5.01 | 1.62 | CC(C)NC[C@H](O)COc1ccc(O)cc1 [Prenalterol] | – |
| 11.88 | 10.42 | CNC(=C[N+](=O)[O-])NCCSCc1csc(CN(C)C)n1 [Nizatidine] | – |
| 1.09 | 1.19 | CCCS(=O)(=O)N[C@H]1C[C@@H](N(C)c2ncnc3[nH]ccc23)C1 [Abrocitinib] | MATE1 (uptake ratio) [1, 4]: 1.09; MATE2 (uptake ratio) [2, 5]: 1.19 |
| – | – | CC(C)(C)c1ccc(C(O)CCCN2CCC(C(O)(c3ccccc3)c3ccccc3)CC2)cc1 (stereo not shown) [Terfenadine] | MATE1 [1, 6]: 1.07; MATE2 [2, 7]: 0.93 |
| 1.18 | 1.06 | CC(C)C[C@H](N)C(=O)O [Leucine] | – |
| 1.08 | 0.99 | [H]/N=C(\N/C(=N/[H])NCCCCCCNC(=N)NC(=N)Nc1ccc(Cl)cc1)Nc1ccc(Cl)cc1 [Chlorhexidine] | MATE1 (uptake ratio) [1, 4]: 1.08; MATE2 (uptake ratio) [2, 5]: 0.99 |
| 0.97 | 0.94 | NC(=O)OCC(COC(N)=O)c1ccccc1 [Felbamate] | – |
| 8.11 | 4.17 | Oc1ccc(C2CNCCc3c2cc(O)c(O)c3Cl)cc1 (stereo not shown) [Fenoldopam] | – |
| – | – | N[C@@H](CCC(=O)O)C(=O)O [Glutamic acid (D), Glutamic acid] | MATE1 ratio [1]: 1.17; MATE2K ratio [2]: 0.99 |
| – | – | COc1ccc2[nH]c3c(c2c1)CCNC3 [Pinoline] | MATE1 ratio [1]: 1.28; MATE2K ratio [2]: 1.21 |
| 1.42 | 1.33 | CN(C)CCCN1c2ccccc2Sc2ccc(Cl)cc21 [Chlorpromazine] | MATE1 (uptake ratio) [1, 4]: 1.42; MATE2 (uptake ratio) [2, 5]: 1.33 |
| 1.17 | 1.08 | COc1ccccc1OCCNCC(O)COc1cccc2[nH]c3ccccc3c12 [Carvedilol (R), Carvedilol] | MATE1 (uptake ratio) [1, 4]: 1.17; MATE2 (uptake ratio) [2, 5]: 1.08 |
| – | – | Cn1c(=O)[nH]c2nc[nH]c2c1=O [1-Methylxanthine] | MATE1 (uptake ratio) [1]: 1.08; MATE1 ratio [1]: 1.08; MATE2 (uptake ratio) [2]: 0.96; MATE2K ratio [2]: 0.96 |
| 1.41 | 0.92 | CCCCC[C@H](O)/C=C/[C@@H]1[C@@H](C/C=C\CCCC(=O)O)[C@@H](O)C[C@H]1O [Prostaglandin F2alpha] | MATE1 [1, 6]: 1.41; MATE2 [2, 7]: 0.92 |
| 19.90 | 1.40 | NCCc1c[nH]cn1 [Histamine] | – |
| – | – | Nc1ccc(N)cc1 [p-Phenylenediamine] | MATE1 ratio [1]: 1.04; MATE2K ratio [2]: 1.07 |
| 5.54 | 3.98 | CC(C)NC(=N)NC(=N)Nc1ccc(Cl)cc1 [Proguanil] | MATE1 ratio in this study ([1]; Table S1, 2.5 μM, 1 min): 5.54; MATE2K ratio in this study ([2]; Table S1, 2.5 μM, 1 min): 3.98 |
| – | – | NCc1ccc(O)cc1 | MATE1 ratio [1]: 1.48; MATE2K ratio [2]: 1.09 |
| – | – | N=C(Nc1ccccc1)Nc1ccccc1 [1,3-Diphenylguanidine] | MATE1 (uptake ratio) [1]: 1.53; MATE1 ratio [1]: 1.53; MATE2 (uptake ratio) [2]: 1.27; MATE2K ratio [2]: 1.27 |
| 1.21 | 1.31 | CC[C@H]1OC(=O)[C@H](C)[C@@H](O[C@H]2C[C@@](C)(OC)[C@@H](O)[C@H](C)O2)[C@H](C)[C@@H](O[C@@H]2O[C@H](C)C[C@H](N(C)C)[C@H]2O)[C@](C)(OC)C[C@@H](C)C(=O)[C@H](C)[C@@H](O)[C@]1(C)O [Clarithromycin] | MATE1 (uptake ratio) [1, 4]: 1.21; MATE2 (uptake ratio) [2, 5]: 1.31 |
| 1.32 | 1.33 | Clc1ccc2c(c1)C(N1CCNCC1)=Nc1ccccc1O2 [Amoxapine] | MATE1 (uptake ratio) [1, 4]: 1.32; MATE2 (uptake ratio) [2, 5]: 1.33 |
| 1.50 | 1.80 | O=S(=O)(c1cccc2cnccc12)N1CCCNCC1 [Fasudil] | – |
| 1.26 | 1.13 | OCCN1CCN(CCCN2c3ccccc3Sc3ccc(C(F)(F)F)cc32)CC1 [Fluphenazine] | – |

| MATE1 ratio [1, 3] | MATE2K ratio [2, 3] | SMILES | other results |
| --- | --- | --- | --- |
| 1.82 | 0.67 | CC1(C)S[C@@H]2[C@H](NC(=O)[C@H](N)c3ccc(O)cc3)C(=O)N2[C@H]1C(=O)O [Amoxicillin] | MATE1 (uptake ratio) [1, 4]: 1.82; MATE2 (uptake ratio) [2, 5]: 0.67 |
| 1.26 | 1.21 | CC(C)N(CCC(C(N)=O)(c1ccccc1)c1ccccn1)C(C)C (stereo not shown) [Disopyramide] | – |
| 21.52 | 8.46 | CC(=O)Nc1ccc(OCC(O)CNC(C)C)cc1 (stereo not shown) [Practolol] | – |
| – | – | CC(C)(C)NCC(O)COc1nsnc1N1CCOCC1 (stereo in doubt) [Timolol (R)] | MATE1 [1, 6]: 0.94; MATE2 [2, 7]: 0.96 |
| – | – | C[N+](C)(C)C[C@H](O)CC(=O)[O-] [Carnitine] | MATE1 (uptake ratio) [1]: 1.16; MATE1 ratio [1]: 1.16; MATE2 (uptake ratio) [2]: 1.13; MATE2K ratio [2]: 1.13 |
| 1.58 | 1.91 | NNCCc1ccccc1 [Phenelzine] | – |
| – | – | CNCCCC1(c2ccc(F)cc2)OCc2cc(C#N)ccc21 (stereo not shown) [N-Desmethylcitalopram] | MATE1 ratio [1]: 1.09; MATE2K ratio [2]: 1.09 |
| 1.09 | 1.34 | CN(C)CCOC(=O)C(c1ccccc1)C1(O)CCCC1 (stereo not shown) [Cyclopentolate] | – |
| – | – | CC1(C)C[C@@H]1C(=O)N/C(=C\CCCCSC[C@H](N)C(=O)O)C(=O)O [Cilastatin] | MATE1 (uptake ratio) [1]: 1.13; MATE1 ratio [1]: 1.13; MATE2 (uptake ratio) [2]: 0.96; MATE2K ratio [2]: 0.96 |
| 1.17 | 1.31 | Cc1ccc(C23CNCC2C3)cc1 (stereo not shown) [Bicifadine] | MATE1 (uptake ratio) [1, 4]: 1.17; MATE2 (uptake ratio) [2, 5]: 1.31 |
| 16.78 | 4.67 | CC(C)NCC(O)c1ccc(O)c(O)c1 (stereo not shown) [Isoprenaline] | – |
| 1.46 | 1.46 | C#CCN[C@@H]1CCc2ccccc21 [Rasagiline (S), Rasagiline] | MATE1 [1, 6]: 1.46; MATE2 [2, 7]: 1.46 |
| 0.97 | 1.14 | Cc1ncc(CO)c(C=O)c1O [Pyridoxal] | MATE1 [1, 6]: 0.97; MATE2 [2, 7]: 1.14 |
| 11.01 | 8.76 | CCN(CC)C(=O)Nc1ccc(OCC(O)CNC(C)(C)C)c(C(C)=O)c1 (stereo not shown) [Celiprolol] | MATE1 (uptake ratio) [1, 4]: 11.01; MATE2 (uptake ratio) [2, 5]: 8.76 |
| 0.89 | 1.10 | COc1ccc2[nH]cc(C[C@H](N)C(=O)O)c2c1 | – |
| 0.98 | 0.76 | O=c1[nH]c2ccccc2n1C1CCN(CCCC(c2ccc(F)cc2)c2ccc(F)cc2)CC1 [Pimozide] | – |
| – | – | O=c1cccc2n1C[C@@H]1CNC[C@H]2C1 [Cytisine] | MATE1 ratio [1]: 1.95; MATE2K ratio [2]: 1.17 |
| 5.65 | 1.85 | CCC(NC(C)C)C(O)c1ccc(O)c(O)c1 (stereo not shown) [Isoetharine] | – |
| – | – | CC(=O)O[C@H]1C[C@@H]2CC[C@@H]3[C@H](CC[C@@]4(C)[C@H]3C[C@H]([N+]3(C)CCCCC3)[C@@H]4OC(C)=O)[C@@]2(C)C[C@@H]1N1CCCCC1 [Vecuronium] | MATE1 [1]: 8.32; MATE2 [2]: 4.72 |
| 0.83 | 1.31 | C[N+]1(C)CCC[C@H]1C(=O)[O-] [Stachydrine] | MATE1 [1, 6]: 0.83; MATE2 [2, 7]: 1.31 |
| – | – | COc1cc2c(cc1OC)-c1c(C)c3ccc(OC)c(OC)c3c[n+]1CC2 [Dehydrocorydaline] | MATE1 ratio [1]: 9.25; MATE2K ratio [2]: 2.85 |
| 0.18 | 1.03 | NCCC(=O)N[C@@H](Cc1cnc[nH]1)C(=O)O [Carnosine] | MATE1 (uptake ratio) [1, 4]: 0.18; MATE2 (uptake ratio) [2, 5]: 1.03 |
| 1.52 | 1.21 | CN(C)C(=O)Oc1cc(OC(=O)N(C)C)cc(C(O)CNC(C)(C)C)c1 (stereo not shown) [Bambuterol] | MATE1 (uptake ratio) [1, 4]: 1.52; MATE2 (uptake ratio) [2, 5]: 1.21 |
| 1.21 | 1.17 | CC(=O)Oc1c(C)cc(OCC(O)CNC(C)C)c(C)c1C (stereo not shown) [Metipranolol] | – |

| SMILES | MATE1 ratio [1, 3] | MATE2K ratio [2, 3] | other results |
| --- | --- | --- | --- |
| C[N+]12CCC(CC1)C(OC(=O)C(O)(c1ccccc1)c1ccccc1)C2 (stereo not shown) [Clidinium] | 16.18 | 1.79 | MATE1 (uptake ratio) [1, 4]: 16.18; MATE2 (uptake ratio) [2, 5]: 1.79 |
| NCCc1ccccc1 [2-Phenylethylamine] | 1.39 | 1.43 | MATE1 (uptake ratio) [1, 4]: 1.39; MATE2 (uptake ratio) [2, 5]: 1.43 |
| CNC[C@H](O)c1cccc(O)c1 [Phenylephrine (L), Phenylephrine] | 18.71 | 2.15 | – |
